Experiments:
Aurora-A = target: T1, Aurora-A (Homo sapiens, UniProt O14965); test: Flashplate Aurora A enzyme inhibition assay; format: biochemical; details: Flashplate assay; IC50 range; read-out: Aurora-A inhibition
T1 sequence (O14965 1-403): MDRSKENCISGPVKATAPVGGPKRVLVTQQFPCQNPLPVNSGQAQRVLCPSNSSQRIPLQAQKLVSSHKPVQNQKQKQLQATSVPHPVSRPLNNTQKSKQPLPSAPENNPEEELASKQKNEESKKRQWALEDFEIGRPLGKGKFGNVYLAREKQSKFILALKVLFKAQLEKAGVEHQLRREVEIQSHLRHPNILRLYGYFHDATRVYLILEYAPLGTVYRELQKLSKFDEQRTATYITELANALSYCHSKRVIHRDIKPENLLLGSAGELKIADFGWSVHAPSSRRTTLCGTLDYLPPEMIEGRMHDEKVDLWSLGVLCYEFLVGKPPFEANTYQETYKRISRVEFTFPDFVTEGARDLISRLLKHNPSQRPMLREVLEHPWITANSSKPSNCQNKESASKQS
Description: Flashplate® Assay for Identification and Evaluation of Aurora-A Inhibitors
On this assay 384-well Basic Flashplate® (SMP400E, PerkinElmer) as solid assay platform was used. The plates were coated overnight at 4° C. with […] at 100 μg/ml in PBS buffer and used after being washed twice with PBS. 5 μl of compound in 2% DMSO was added to each well followed by 15 μl master mix of kinase buffer (50 mM Tris pH 7.5, 10 mM NaCl, 2.5 mM MgCl2, 1 mM […], 20 μM ATP, and 0.025 μCi/μl ^33P-ATP). Finally, 250 ng per well of Aurora-A enzyme was added. The plate was shaken for approximately 2 min on a flat-bed plate shaker (Wellmix, Denley, UK) and incubated for 2 hours at room temperature. The reaction was stopped by washing the plate twice on a 16-pin wash (ELX50 BioTek Instruments Ltd., Northstar, Bedford, UK) with 10 mM sodium pyrophosphate. The plate was then read on a TopCount-NX™ (PerkinElmer Life Sciences UK Ltd., Hounslow, UK).

HCT116 cells = test: Cell viability assay (MTT) in HCT116 cell line; format: cell-based; details: Homo sapiens, HCT-116, 72 hrs, IC50 range, read-out: HCT116 cell growth inhibition
Description: Cell Viability Assay: Determination of IC50 of Aurora Inhibitors in HCT116 Cell Line Using MTT Assay. The effects of compounds of the Examples on cellular proliferation were determined using the MTT assay according to manufacturer's instructions (Sigma). Briefly, the human colon tumour cells HCT116, were seeded in triplicate into 96-well plates at 2500 cells/well 24 hours before treatment with a range of concentrations of Aurora inhibitors (0-50 μM). After 72 hrs, 15 μl/well of 0.5% 3-(4,5-dimethylthiazol-2-yl)-2,5-diphenyltetrazolium bromide (MTT) was added to the cells for 4 hrs at 37° C., the dye-stained viable cells were extracted by adding 150 μl/well of dimethyl sulphoxide (DMSO). […] The IC50 was calculated using the Prism software.

With `COc1ccc(-c2nc3c(N4CCN(Cc5ccc(Cl)cc5)CC4)c(Cl)cnc3[nH]2)cc1` [Example 37, 6-Chloro-7-(4-(4-chlorobenzyl)piperazin-1-yl)-2-(4-methoxyphenyl)-3H-imidazo[4,5-b]pyridine] the IC50 (Aurora-A) was under 500 nM and the IC50 (HCT116 cells) was 2000 to 50000 nM.

With `COc1ccc(-c2nc3c(N4CCN(C(C)c5ccncc5)CC4)c(Br)cnc3[nH]2)cc1` (centres unmarked) [Example 54, 6-Bromo-2-(4-methoxyphenyl)-7-(4-(1-(pyridin-4-yl)ethyl)piperazin-1-yl)-3H-imidazo[4,5-b]pyridine] the IC50 (Aurora-A) was under 500 nM and the IC50 (HCT116 cells) was under 500 nM.

Work on `Brc1cnc2[nH]c(-c3ccc(-n4cccn4)cc3)nc2c1N1CCN(Cc2cccnc2)CC1` [Example 108, 2-(4-(1H-pyrazol-1-yl)phenyl)-6-bromo-7-(4-(pyridin-3-ylmethyl)piperazin-1-yl)-3H-imidazo[4,5-b]pyridine] yielded an IC50 (Aurora-A) of under 500 nM and an IC50 (HCT116 cells) of 500 to 2000 nM.

With `CC(C)(C)OC(=O)N1CCN(Cc2ccc(-c3nc4c(N5CCN(Cc6cncnc6)CC5)c(Cl)cnc4[nH]3)cc2)CC1` [Example 140, tert-Butyl 4-(4-(6-chloro-7-(4-(pyrimidin-5-ylmethyl)piperazin-1-yl)-3H-imidazo[4,5-b]pyridin-2-yl)benzyl)piperazine-1-carboxylate] the IC50 (Aurora-A) was under 500 nM and the IC50 (HCT116 cells) was under 500 nM.

With `NCCc1nc2c(N3CCN(Cc4cccnc4)CC3)c(Br)cnc2[nH]1` [Example 98, 2-(6-Bromo-7-(4-(pyridin-3-ylmethyl)piperazin-1-yl)-3H-imidazo[4,5-b]pyridin-2-yl)ethanamine] the IC50 (Aurora-A) was 2000 to 10000 nM and the IC50 (HCT116 cells) was 2000 to 50000 nM.

In the case of `COc1ccc(-c2nc3c(N4CCN(Cc5cccc6c5OCO6)CC4)c(Br)cnc3[nH]2)cc1` [Example 119, 7-(4-(Benzo[d][1,3]dioxol-4-ylmethyl)piperazin-1-yl)-6-bromo-2-(4-methoxyphenyl)-3H-imidazo[4,5-b]pyridine], the IC50 (Aurora-A) is reported as under 500 nM and the IC50 (HCT116 cells) is reported as under 500 nM.

Work on `Brc1cnc2[nH]c(-c3ccc(Cn4ccnc4)cc3)nc2c1N1CCN(Cc2cccnc2)CC1` [Example 110, 2-(4-((1H-Imidazol-1-yl)methyl)phenyl)-6-bromo-7-(4-(pyridin-3-ylmethyl)piperazin-1-yl)-3H-imidazo[4,5-b]pyridine] yielded an IC50 (Aurora-A) of under 500 nM and an IC50 (HCT116 cells) of 500 to 2000 nM.

`Cn1cc(-c2nc3c(N4CCN(Cc5cccnc5)CC4)c(Br)cnc3[nH]2)cn1` [Example 56, 6-Bromo-2-(1-methyl-1H-pyrazol-4-yl)-7-(4-(pyridin-3-ylmethyl)piperazin-1-yl)-3H-imidazo[4,5-b]pyridine] showed an IC50 (Aurora-A) of under 500 nM and an IC50 (HCT116 cells) of 2000 to 50000 nM.

For `COc1ccc(CN2CCN(c3c(Br)cnc4[nH]c(-c5ccc(N6CCOCC6)cc5)nc34)CC2)cn1` [Example 118, 4-(4-(6-Bromo-7-(4-((6-methoxypyridin-3-yl)methyl)piperazin-1-yl)-3H-imidazo[4,5-b]pyridin-2-yl)phenyl)morpholine], the IC50 (Aurora-A) was under 500 nM and the IC50 (HCT116 cells) was under 500 nM.

For `COc1ccc(-c2nc3c(N4CCN(CC(=O)Nc5cc(C)no5)CC4)c(Cl)cnc3[nH]2)cc1` [Example 64, 2-(4-(6-Chloro-2-(4-methoxyphenyl)-3H-imidazo[4,5-b]pyridin-7-yl)piperazin-1-yl)-N-(3-methylisoxazol-5-yl)acetamide], the IC50 (Aurora-A) was under 500 nM and the IC50 (HCT116 cells) was 500 to 2000 nM.

For `O=C(CN1CCN(c2c(Cl)cnc3[nH]c(-c4ccc(N5CCS(=O)(=O)CC5)cc4)nc23)CC1)Nc1nccs1` [Example 187, 2-(4-(6-Chloro-2-(4-(1,1-dioxothiomorpholino)phenyl)-3H-imidazo[4,5-b]pyridin-7-yl)piperazin-1-yl)-N-(thiazol-2-yl)acetamide], the IC50 (Aurora-A) was under 500 nM and the IC50 (HCT116 cells) was 500 to 2000 nM.

Work on `CN(C)c1ccc(-c2nc3c(N4CCN(Cc5ccccn5)CC4)c(Br)cnc3[nH]2)cc1` [Example 30, 4-(6-Bromo-7-(4-(pyridin-2-ylmethyl)piperazin-1-yl)-3H-imidazo[4,5-b]pyridin-2-yl)-N,N-dimethylaniline] yielded an IC50 (Aurora-A) of under 500 nM and an IC50 (HCT116 cells) of 2000 to 50000 nM.

Compound `CC(C)(C)OC(=O)NCc1ccc(-c2nc3c(N4CCN(Cc5cccnc5)CC4)c(Br)cnc3[nH]2)cc1` [Example 59, tert-Butyl 4-(6-bromo-7-(4-(pyridin-3-ylmethyl)piperazin-1-yl)-3H-imidazo[4,5-b]pyridin-2-yl)benzylcarbamate] has an IC50 (Aurora-A) of under 500 nM and an IC50 (HCT116 cells) of 2000 to 50000 nM.

`CN(C)c1ccc(-c2nc3c(N4CCCN(Cc5ccc(F)cc5)CC4)c(Br)cnc3[nH]2)cc1` [Example 34, 4-(6-Bromo-7-(4-(4-fluorobenzyl)-1,4-diazepan-1-yl)-3H-imidazo[4,5-b]pyridin-2-yl)-N,N-dimethylaniline] was tested, and the IC50 (Aurora-A) was under 500 nM and the IC50 (HCT116 cells) was 2000 to 50000 nM.

For `Cn1cncc1CN1CCN(c2c(Br)cnc3[nH]c(-c4ccc(CN5CCNCC5)cc4)nc23)CC1` [Example 181, 6-bromo-7-(4-((1-methyl-1H-imidazol-5-yl)methyl)piperazin-1-yl)-2-(4-(piperazin-1-ylmethyl)phenyl)-3H-imidazo[4,5-b]pyridine], the IC50 (Aurora-A) was under 500 nM and the IC50 (HCT116 cells) was 2000 to 50000 nM.

For `COc1ccc(-c2nc3c(N4CCN(Cc5cn(C)cn5)CC4)c(Br)cnc3[nH]2)cc1` [Example 168, 6-Bromo-2-(4-methoxyphenyl)-7-(4-((1-methyl-1H-imidazol-4-yl)methyl)piperazin-1-yl)-3H-imidazo[4,5-b]pyridine], the IC50 (Aurora-A) was under 500 nM and the IC50 (HCT116 cells) was 2000 to 50000 nM.

`Brc1cnc2[nH]c(-c3ccc(CN4CCOCC4)cc3)nc2c1N1CCN(CC2CCC2)CC1` [Example 150, 4-(4-(6-Bromo-7-(4-(cyclobutylmethyl)piperazin-1-yl)-3H-imidazo[4,5-b]pyridin-2-yl)benzyl)morpholine] was tested, and the IC50 (Aurora-A) was under 500 nM and the IC50 (HCT116 cells) was under 500 nM.

Compound `Brc1cnc2[nH]c(-c3ccc(CN4CCOCC4)cc3)nc2c1N1CCN(Cc2cccc3c2OCO3)CC1` [Example 120, 4-(4-(7-(4-(Benzo[d][1,3]dioxol-4-ylmethyl)piperazin-1-yl)-6-bromo-3H-imidazo[4,5-b]pyridin-2-yl)benzyl)morpholine] has an IC50 (Aurora-A) of under 500 nM and an IC50 (HCT116 cells) of 2000 to 50000 nM.

`O=C(CN1CCN(c2c(Br)cnc3[nH]c(-c4cccnc4)nc23)CC1)Nc1nccs1` [Example 44, 2-(4-(6-Bromo-2-(pyridin-3-yl)-3H-imidazo[4,5-b]pyridin-7-yl)piperazin-1-yl)-N-(thiazol-2-yl)acetamide] showed an IC50 (Aurora-A) of under 500 nM and an IC50 (HCT116 cells) of 500 to 2000 nM.

`CN(C)Cc1ccc(-c2nc3c(N4CCN(Cc5cccnc5)CC4)c(Br)cnc3[nH]2)cc1` [Example 61, 1-(4-(6-Bromo-7-(4-(pyridin-3-ylmethyl)piperazin-1-yl)-3H-imidazo[4,5-b]pyridin-2-yl)phenyl)-N,N-dimethylmethanamine] showed an IC50 (Aurora-A) of under 500 nM and an IC50 (HCT116 cells) of 500 to 2000 nM.

In the case of `CC(c1cccnc1)N1CCN(c2c(Br)cnc3[nH]c(-c4ccc(N(C)C)cc4)nc23)CC1` (centres unmarked) [Example 52, 4-(6-Bromo-7-(4-(1-(pyridin-3-yl)ethyl)piperazin-1-yl)-3H-imidazo[4,5-b]pyridin-2-yl)-N,N-dimethylaniline], the IC50 (Aurora-A) is reported as under 500 nM and the IC50 (HCT116 cells) is reported as 500 to 2000 nM.

Compound `Brc1cnc2[nH]c(-c3ccc(Cn4cccn4)cc3)nc2c1N1CCN(Cc2ccncc2)CC1` [Example 78, 2-(4-((1H-Pyrazol-1-yl)methyl)phenyl)-6-bromo-7-(4-(pyridin-4-ylmethyl)piperazin-1-yl)-3H-imidazo[4,5-b]pyridine] has an IC50 (Aurora-A) of under 500 nM and an IC50 (HCT116 cells) of under 500 nM.

`CN(C)c1ccc(-c2nc3c(N4CCN(CC(=O)N(C)c5nccs5)CC4)c(Br)cnc3[nH]2)cc1` [Example 89, 2-(4-(6-Bromo-2-(4-(dimethylamino)phenyl)-3H-imidazo[4,5-b]pyridin-7-yl)piperazin-1-yl)-N-methyl-N-(thiazol-2-yl)acetamide] gave an IC50 (Aurora-A) of under 500 nM and an IC50 (HCT116 cells) of under 500 nM.

Compound `Cc1noc(C)c1CN1CCN(c2c(Br)cnc3[nH]c(-c4ccc(CN5CCOCC5)cc4)nc23)CC1` [Example 128, 4-(4-(6-Bromo-7-(4-((3,5-dimethylisoxazol-4-yl)methyl)piperazin-1-yl)-3H-imidazo[4,5-b]pyridin-2-yl)benzyl)morpholine] has an IC50 (Aurora-A) of under 500 nM and an IC50 (HCT116 cells) of under 500 nM.

`Cc1nc(CN2CCN(c3c(Br)cnc4[nH]c(-c5ccc(N6CCNCC6)cc5)nc34)CC2)cs1` [Example 163, 4-((4-(6-Bromo-2-(4-(piperazin-1-yl)phenyl)-3H-imidazo[4,5-b]pyridin-7-yl)piperazin-1-yl)methyl)-2-methylthiazole] was tested, and the IC50 (Aurora-A) was under 500 nM and the IC50 (HCT116 cells) was under 500 nM.

Reference: patent US8088761B2, “Enzyme inhibitors” (Cancer Research Technology Limited, priority 2005, dated 2012)
